Measurements published in patent US6447997B1, “Gene coding for GADD153 as a clinical diagnostic and prognostic in cancer therapy” (Research Development Foundation, priority 1997, dated 2002).

Legend:
[1] = Maximum tolerated dose of cDDP in the nude mouse xenograft system; type: in vivo; conditions: nude mice, i.p.
Description: The various aspects of the invention are also useful for xenografted tumors. Nude mice were inoculated s.c. with human UMSCC10b tumor cells, and then treated with cDDP (0, 10, 15, 30 or 50 mg/kg cDDP i.p.) when the tumors reached 1 ml in volume. FIG. 5a depicts the results obtained when tumors were harvested at 24 h after cDDP treatment. […] The time course of the change in message level in the xenografts was similar to that observed with in vitro exposure of the cells (FIG. 5b). Thus, GADD153 mRNA levels can be increased in vivo by cDDP doses around the maximum tolerated dose in this system (15-20 mg/kg cDDP).

GADD153 mRNA = test: Change in GADD153 mRNA in tumor biopsies of head and neck cancer patients after cDDP-based treatment; type: in vivo, human; conditions: 24 h after start of first course
Description: The present inventors have also discovered that the prognostic method for clinical response by a tumor to a chemotherapeutic agent can accurately predict a corresponding therapeutic response by a patient even though there exist several sources for potential variation. The relationship between the change in GADD153 mRNA level at 24 h after the start of the first course of treatment with cDDP or cDDP plus radiation therapy and subsequent tumor clinical response to this therapy in 32 patients with stage IV head and neck cancer was examined.
Thirty-two patients with previously untreated stage IV head and neck cancer were treated at the UCSD Cancer Center on a phase I/II experimental protocol. All patients had been considered to have unresectable tumors. All patients received i.a. cDDP (150-200 mg/M^2) and i.v. sodium thiosulfate infusion concurrently. The details of this treatment program have been published elsewhere by the present inventors (17,18), which description is specifically incorporated herein by reference. cDDP was dissolved in 400 ml of 0.9% saline and infused over 3-5 minutes through a microcatheter placed angiographically to selectively encompass the dominant blood supply of the targeted tumor. Simultaneous with the cDDP infusion, sodium thiosulfate was infused i.v. at a dose of 9 g/m^2 dissolved in 300 ml of distilled water over 3 minutes, followed by 12 g/m^2 dissolved in one liter of distilled water over 6 h by continuous infusion to prevent severe nephrotoxicity. Treatment was repeated weekly for a total of 4 doses. […] Tumor response was assessed at 2 months using criteria based on physical examination, repeat computed tomography/magnetic resonance imaging studies, and repeat endoscopy and biopsy. […]
GADD153 message levels were quantified using a modification of the technique reported by Horikoshi et al (20). […] PCR products were separated on a 8 M (6%) acrylamide gel and analyzed using a Molecular Imaging System (BioRad, Hercules, Calif.). […]

[2] = system: stage IV head and neck cancer; test: Tumor clinical response of patients to cDDP-based treatment; type: in vivo, human; conditions: i.a. cDDP with i.v. sodium thiosulfate, with or without radiation therapy
Description: Thirty-two patients with previously untreated stage IV head and neck cancer were treated at the UCSD Cancer Center on a phase I/II experimental protocol. All patients had been considered to have unresectable tumors. All patients received i.a. cDDP (150-200 mg/M^2) and i.v. sodium thiosulfate infusion concurrently. The details of this treatment program have been published elsewhere by the present inventors (17,18), which description is specifically incorporated herein by reference. cDDP was dissolved in 400 ml of 0.9% saline and infused over 3-5 minutes through a microcatheter placed angiographically to selectively encompass the dominant blood supply of the targeted tumor. Simultaneous with the cDDP infusion, sodium thiosulfate was infused i.v. at a dose of 9 g/m^2 dissolved in 300 ml of distilled water over 3 minutes, followed by 12 g/m^2 dissolved in one liter of distilled water over 6 h by continuous infusion to prevent severe nephrotoxicity. Treatment was repeated weekly for a total of 4 doses. In addition, 17 of the 32 patients received radiotherapy in doses of […] (×35 fractions) starting concurrently with the start of cDDP treatment. Needle aspiration or small cutting needle biopsies were obtained just before and at 24 h following the first dose of cDDP. Tumor response was assessed at 2 months using criteria based on physical examination, repeat computed tomography/magnetic resonance imaging studies, and repeat endoscopy and biopsy.

SMILES: [NH2][Pt]([NH2])([Cl])[Cl] [cDDP, cisplatin]
- maximum tolerated dose [1]: 15 to 20 mg/kg
- magnitude of increase, above baseline, in GADD153 mRNA, mean (SD) (GADD153 mRNA; CR group (17 patients)): 3.8±2.2 fold
- magnitude of increase, above baseline, in GADD153 mRNA, mean (SD) (GADD153 mRNA; NR group (7 patients with tumor progression)): 0.8±0.5 fold
- magnitude of increase, above baseline, in GADD153 mRNA, mean (SD) (GADD153 mRNA; PR group, all 8 patients): 1.6±0.9 fold
- patients who achieved a partial regression (PR) ([2]; assessed at 2 months): 8 of the 32
- patients who attained a complete regression of the tumor (CR) ([2]; assessed at 2 months): 17 of the 32
- patients who had tumor progression (NR) ([2]; of 32 patients): 7 patients
